Reference: US20040097377A1, “Pesticidal spinosyn derivates” (priority 2003, published 2004)

Assays:
[1] = system: Tobacco Budworm (Heliothis virescens); experiment: Tobacco budworm feeding bioassay (egg and larval stage, 96-well agar diet plate, percent mortality); type: in vivo; details: average of three replicates
Description: (§1) Tobacco Budworm (Heliothis virescens) and Beet Armyworm (Spodoptera littoralis) Feeding Bioassay
(§2) To compare insecticidal activities of the test compounds against egg and larval stage Heliothis virescens or Spodoptera littoralis, 50 ul of a 1:1 acetone:water solution was added to each sample and then solublized for one-hour using an orbital shaker. Each of the resulting sample solutions (50, 120, or 250 ppm) was then applied to a well in a 96-well microtiter plate, each well containing an artificial agar-based lepidoptera diet (modified Shorey diet, Southland Products, Lake Village, Ariz.). Each sample was run in triplicate. Plates were allowed to dry for about 4 hours, covered and held for infestation the next day. Each well of the treated plate was infested with 3-5 eggs (0-2 days old) of either H. virescens or S. littoralis. Plates were then covered with cotton batting and sealed with microplate lid. The treated plates were held inverted in an incubator (80+% rh) for six to seven days. Following the incubation period, the plates were graded for percent mortality using a binocular microscope. Data for each sample was reported as the average percent mortality of the three replicates.

[2] = system: Beet Armyworm (Spodoptera littoralis); experiment: Beet armyworm feeding bioassay (egg and larval stage, 96-well agar diet plate, percent mortality); type: in vivo; details: average of three replicates
Description: as §1, §2

Compound	Tobacco Budworm Diet (6 day) Mortality (%) ([1]; Rate 50 ppm)	Beet Armyworm Diet (6 day) Mortality (%) ([2]; Rate 50 ppm)	Tobacco Budworm Diet (6 day) Mortality (%) ([1]; Rate 120 ppm)	Beet Armyworm Diet (6 day) Mortality (%) ([2]; Rate 120 ppm)
CCC=CC1CCCC(OC2CCC(N(C)C)C(C)O2)C(C)C(=O)C2=CC3C(C=CC4CC(OC5OC(C)C(OC)C(OC)C5OC)CC43)C2CC(=O)O1 (stereo not shown) [Compound 1, for-rham-I, reference compound]	100%	100%		
CCC=CC1CCCC(OC2CCC(N(C)C)C(C)O2)C(C)C(=O)C2=CC3C(C=CC4CC(OC5OC(C)C(OC)C(OC)C5O)CC43)C2CC(=O)O1 (stereo not shown) [Compound 5, for-(2′-O-desmethylrham)-I]	100%	100%		
CCC=CC1CCCC(OC2CCC(N(C)C)C(C)O2)C(C)C(=O)C2=CC3C(C=CC4CC(OC5OC(C)C(OC)C(O)C5OC)CC43)C2CC(=O)O1 (stereo not shown) [Compound 6, for-(3′-O-desmethylrham)-I]	100%	100%		
CCC=CC1CCCC(OC2CCC(N(C)C)C(C)O2)C(C)C(=O)C2=CC3C(C=CC4CC(OC5OC(C)C(O)C(OC)C5OC)CC43)C2CC(=O)O1 (stereo not shown) [Compound 32, for-(4′-O-desmethyl-rham)-I]	100%	100%		
CCC=CC1CCCC(OC2CCC(N(C)C)C(C)O2)C(C)C(=O)C2=CC3C(C=CC4CC(OC5OC(C)C(O)C(O)C5O)CC43)C2CC(=O)O1 (stereo not shown) [Compound 33, for-(2′,3′,4′-tri-O-desmethyl-rham)-I]	100%	100%		
CCC=CC1CCCC(OC2CCC(N(C)C)C(C)O2)C(C)C(=O)C2=CC3C(C=CC4C(O)C(OC5OC(C)C(O)C(OC)C5OC)CC43)C2CC(=O)O1 (stereo not shown) [Compound 34, for-(4′-O-desmethyl-rham)-III]	100%	100%		
CCC=CC1CCCC(OC2CCC(N(C)C)C(C)O2)C(C)C(=O)C2=CC3C(C=CC4CC(OC5OC(C)C(O)C(O)C5OC)CC43)C2CC(=O)O1 (stereo not shown) [Compound 37]	100%	100%		
CCC=CC1CCCC(OC2CCC(N(C)C)C(C)O2)C(C)C(=O)C2=CC3C(C=CC4C(O)C(OC5OC(C)C(O)C(O)C5OC)CC43)C2CC(=O)O1 (stereo not shown) [Compound 40, for-(3′,4′-di-O-desmethyl-rham) III]	100%	93%		
CCC=CC1CCCC(OC2CCC(N(C)C)C(C)O2)C(C)C(=O)C2=CC3C(C=CC4C(O)C(OC5OC(C)C(OC)C(O)C5OC)CC43)C2CC(=O)O1 (stereo not shown) [Compound 41, for-(3′-O-desmethyl-rham) III]	100%	100%		
CC=CC1CCCC(OC2CCC(N(C)C)C(C)O2)C(C)C(=O)C2=CC3C(C=CC4CC(OC5OC(C)C(O)C(O)C5OC)CC43)C2CC(=O)O1 (stereo not shown) [Compound 43, 24-desmethyl-for-(3′,4′-di-O-desmethyl-rham)-I]	33%	80%		
CCC=CC1CCCC(OC2CCC(NC)C(C)O2)C(C)C(=O)C2=CC3C(C=CC4CC(OC5OC(C)C(OC)C(O)C5OC)CC43)C2CC(=O)O1 (stereo not shown) [Compound 137, (4″-N-desmethyl-for)-(3′-O-desmethyl-rham)-I]			100%	100%
COC1C(C)OC(OC2CC3C=CC4C5CC(=O)OC(C=CC(C)O)CCCC(OC6CCC(N(C)C)C(C)O6)C(C)C(=O)C5=CC4C3C2)C(OC)C1O (stereo not shown) [Compound 141, 24-hydroxy-for-(3′-O-desmethyl-rham)-I]			100%	67%
for-(3′,4′-di-O-desmethyl-rham)-II [Compound 44]	100%	100%		
for-(3′,4′-di-O-desmethyl-rham)-IV [Compound 163]			100%	100%
